Assay results taken from ChEMBL document CHEMBL2380208, “Novel quinoline derivatives as inhibitors of bacterial DNA gyrase and topoisomerase IV” (Bioorg Med Chem Lett, 2013).
In brackets after ≈: the same amount, converted by molar mass.

Key:
Staphylococcus aureus [1] = test: Antibacterial activity against fluoroquinolone-resistant Staphylococcus aureus 1095; format: functional
Staphylococcus aureus [2] = test: Antibacterial activity against fluoroquinolone-resistant Staphylococcus aureus harboring DNA gyrase D83N mutant; format: functional
[3] = Inhibition of Streptococcus pneumoniae DNA gyrase
[4] = Inhibition of human DNA topoisomerase 4
Staphylococcus aureus [5] = test: Antibacterial activity against Staphylococcus aureus 1146; format: functional
[6] = Inhibition of Streptococcus pneumoniae topoisomerase 4
[7] = Inhibition of Staphylococcus aureus DNA topoisomerase 4
Staphylococcus aureus [8] = test: Antibacterial activity against fluoroquinolone-resistant Staphylococcus aureus 1095 infected in mouse assessed as survival compound administered 0.5 to 4 hrs post-infection measured after 7 days; format: functional; settings: read-out: PD50
DNA gyrase = DNA gyrase (Staphylococcus aureus, UniProt P0A0K8+P20831); test: Inhibition of Staphylococcus aureus DNA gyrase; format: protein-complex assay
Staphylococcus aureus [9] = test: Antibacterial activity against fluoroquinolone-resistant Staphylococcus aureus harboring DNA gyrase M121K mutant; format: functional
[10] = Clearance in rat at 2 mg/kg, iv and 5 mg/kg, po; format: ADME, organism-based; settings: in vivo
Streptococcus pyogenes [11] = test: Antibacterial activity against Streptococcus pyogenes 02C0203 infected in mouse assessed as survival compound administered 0.5 to 4 hrs post-infection measured after 7 days; settings: 02C0203, in Mus musculus, read-out: PD50
Streptococcus pyogenes [12] = test: Antibacterial activity against Streptococcus pyogenes; format: functional
Staphylococcus aureus [13] = test: Antibacterial activity against Staphylococcus aureus; format: functional
[14] = Volume of distribution at steady state in rat at 2 mg/kg, iv and 5 mg/kg, po; format: ADME, organism-based; settings: in vivo, read-out: Vdss
[15] = target: Voltage-gated inwardly rectifying potassium channel KCNH2 (Homo sapiens, UniProt Q12809); test: Inhibition of human ERG channel in HEK293 cells by voltage-gated patch clamp technique; format: cell-based

| Compound | MIC (Staphylococcus aureus [1]) [µg/mL] | MIC (Staphylococcus aureus [2]) [µg/mL] | IC50 [3] [µM] | IC50 [4] [µM] | MIC (Staphylococcus aureus [5]) [µg/mL] | IC50 [6] [µM] | IC50 [7] [µM] | ED50 (Staphylococcus aureus [8]) [mg/kg] | IC50 (DNA gyrase) [µM] | MIC (Staphylococcus aureus [9]) [µg/mL] | clearance [10] [mL/min/kg] | ED50 (Streptococcus pyogenes [11]) [mg/kg] | MIC90 (Streptococcus pyogenes [12]) [µg/mL] | MIC90 (Staphylococcus aureus [13]) [µg/mL] | Vd [14] [L/kg] | IC50 [15] [µM] |
| --- | --- | --- | --- | --- | --- | --- | --- | --- | --- | --- | --- | --- | --- | --- | --- | --- |
| COc1ccc2nccc([C@@H](O)CC[C@@H]3CCN(CCSc4cccs4)C[C@@H]3C(=O)O)c2c1 | 0.1 (≈ 0.205 µM) | > 64 | 5.85 | > 200 | 0.068 (≈ 0.14 µM) | 6.54 | 84.6 | 34.7 | 2.42 | > 64 | – | – | – | – | – | – |
| COc1ccc2nccc(C(O)CC[C@@H]3CCN(C/C=C/c4cc(F)ccc4F)C[C@@H]3C(=O)O)c2c1 (stereo partly specified) | 0.5 (≈ 1.01 µM) | 10 (≈ 20.1 µM) | 6.25 | 100 | 0.25 (≈ 0.503 µM) | 3.75 | 8.84 | – | 7.66 | 13 (≈ 26.2 µM) | – | – | – | – | – | – |
| COc1ccc2nccc([C@H](O)CC[C@@H]3CCN(C4CC(c5ccccc5)C4)C[C@@H]3C(=O)O)c2c1 (stereo partly specified) | – | – | 21.7 | > 200 | 0.23 (≈ 0.485 µM) | 30 | – | – | – | – | – | – | – | – | – | – |
| COc1ccc2nccc([C@@H](O)CC[C@@H]3CCN(C4CC(c5ccccc5F)C4)C[C@@H]3C(=O)O)c2c1 (stereo partly specified) | ≤ 0.0625 | 64 (≈ 130 µM) | – | – | ≤ 0.0625 | – | 37 | – | 12.5 | > 64 | – | – | – | – | – | – |
| COc1ccc2nccc([C@@H](O)CC[C@@H]3CCN(C4CC(c5cccc(F)c5)C4)C[C@@H]3C(=O)O)c2c1 (stereo partly specified) | 0.125 (≈ 0.254 µM) | 32 (≈ 65 µM) | – | – | ≤ 0.0625 | – | 38 | – | 1.56 | 32 (≈ 65 µM) | – | – | – | – | – | – |
| COc1ccc2nccc([C@@H](O)CC[C@@H]3CCN(C4CC(c5c(F)cccc5F)C4)C[C@@H]3C(=O)O)c2c1 (stereo partly specified) | 0.25 (≈ 0.49 µM) | 32 (≈ 62.7 µM) | – | – | 0.125 (≈ 0.245 µM) | – | > 100 | 16.3 | 2.93 | 23 (≈ 45 µM) | 39.7 | 22 | 1 (≈ 1.96 µM) | 0.25 (≈ 0.49 µM) | 3 | – |
| COc1ccc2nccc([C@@H](O)CC[C@@H]3CCN(C4CC(c5ccc(F)cc5F)C4)C[C@@H]3C(=O)O)c2c1 (stereo partly specified) | 0.25 (≈ 0.49 µM) | 64 (≈ 125 µM) | – | – | ≤ 0.0625 | – | 60 | – | 9.4 | 64 (≈ 125 µM) | – | – | – | – | – | – |
| COc1ccc2nccc([C@@H](O)CC[C@@H]3CCN(C4CC(c5c(F)ccc(F)c5F)C4)C[C@@H]3C(=O)O)c2c1 (stereo partly specified) | ≤ 0.0625 | 8 (≈ 15.1 µM) | – | – | ≤ 0.0625 | – | 35.6 | – | 1.56 | 16 (≈ 30.3 µM) | – | – | – | – | – | – |
| COc1ccc2nccc([C@@H](O)CC[C@@H]3CCN(C4CC(c5ccc(F)c(F)c5F)C4)C[C@@H]3C(=O)O)c2c1 (stereo partly specified) | 0.5 (≈ 0.946 µM) | > 64 | – | – | ≤ 0.0625 | – | 110 | – | 3.13 | > 64 | – | – | – | – | – | – |
| COc1ccc2nccc([C@@H](O)CC[C@@H]3CCN(C4CC(c5cc(F)cc(F)c5)C4)C[C@@H]3C(=O)O)c2c1 (stereo partly specified) | 0.25 (≈ 0.49 µM) | 8 (≈ 15.7 µM) | – | – | ≤ 0.0625 | – | 15 | – | 1.56 | 8 (≈ 15.7 µM) | – | – | – | – | – | 7.18 |
| COc1ccc2nccc([C@@H](O)CC[C@@H]3CCN(C4CC(c5cc(F)c(Cl)cc5F)C4)C[C@@H]3C(=O)O)c2c1 (stereo partly specified) | 1 (≈ 1.83 µM) | > 64 | – | – | 0.25 (≈ 0.459 µM) | – | 120 | – | 4.7 | > 64 | – | – | – | – | – | – |
| COc1ccc2nccc([C@@H](O)CC[C@@H]3CCN(C4CC(c5cc(F)cc(F)c5F)C4)C[C@@H]3C(=O)O)c2c1 (stereo partly specified) | 0.125 (≈ 0.236 µM) | 8 (≈ 15.1 µM) | – | – | ≤ 0.0625 | – | 8.4 | – | 1.56 | 8 (≈ 15.1 µM) | – | – | – | – | – | 30.9 |
| COc1ccc2nccc(C(O)CC[C@@H]3CCN(C[C@@H]4C[C@H]4c4ccccc4)C[C@@H]3C(=O)O)c2c1 (mixture of isomers) | – | – | 50 | 150 | 1 | 7.5 | – | – | – | – | – | – | – | – | – | – |
| O=C(O)c1cn(C2CC2)c2cc(N3CCNCC3)c(F)cc2c1=O [CIPROFLOXACIN] | – | – | – | – | – | – | – | – | – | – | – | – | 0.5 (≈ 1.51 µM) | > 64 | – | – |
